The record followed here is PubChem BioAssay AID1745844 (Carcinogenic Potency Database (CPDB), 2022).

Several values for one entry are separate records, joined by “and”; a condition that tells them apart may be missing. Identical values can stand only once. Activity calls are given as the source filed them. The rule behind the calls is not given here.

This data set relates to rodent lifetime carcinogenesis bioassay, tumor incidence TD50. Put plainly: chronic cancer bioassays in animals – CPDB, compiled studies (AID 1745844).
Where [1] appears, read: mouse, strain B6AKF1, females, oral dosing, site: lung, lesion: adenoma, dosed 76 weeks, study length 76 weeks.

A word on the TD50: it is the dose at which the toxic effect under study appears in half of the subjects. `CCCNC(=O)NS(=O)(=O)c1ccc(Cl)cc1`: the carcinogen call reads like this: (mouse, strain B6C3F1, females, in feed, site: any site (literature study), lesion: several types, types named in the paper, dosed 104 weeks, study length 104 weeks) “negative (inactive)”; (mouse, strain B6C3F1, males, in feed, site: any site (literature study), lesion: several types, types named in the paper, dosed 104 weeks, study length 104 weeks) “negative (inactive)”; (rat, strain Fischer 344, females, in feed, site: any site (literature study), lesion: several types, types named in the paper, dosed 104 weeks, study length 104 weeks) “negative (inactive)”; (rat, strain Fischer 344, males, in feed, site: any site (literature study), lesion: several types, types named in the paper, dosed 103 weeks, study length 103 weeks) “negative (inactive)”. In addition, the TD50 (mouse, strain B6C3F1, females, in feed, site: lung, lesion: alveolar/bronchiolar adenoma + alveolar/bronchiolar carcinoma, dosed 104 weeks, study length 104 weeks) came out at 1440 mg/kg/day.

As to `CN(C)c1ccc(N=Nc2ccccc2)cc1`, the TD50 (monkey, strain Rhesus [Macaca mulatta], both sexes, in feed, site: any site (literature study), lesion: malignant tumor, dosed 258 weeks, study length 1019 weeks) was determined as 17.2 mg/kg/day; the TD50 (monkey, strain Rhesus [Macaca mulatta], both sexes, in feed, site: lung, lesion: alveolar/bronchiolar carcinoma, dosed 258 weeks, study length 1019 weeks) came to 4.84 mg/kg/day; the TD50 (rat, strain Wistar albino, females, in feed, site: liver, lesion: bile duct tumor, dosed 33 weeks, study length 56 weeks) is 4.9 mg/kg/day; the TD50 (rat, strain Wistar albino, females, in feed, site: liver, lesion: hepatoma, dosed 33 weeks, study length 56 weeks) is 3.31 mg/kg/day; the TD50 (rat, strain Wistar albino, females, in feed, site: liver, lesion: liver-cell carcinoma, dosed 33 weeks, study length 56 weeks) is 7.42 mg/kg/day.

As to `C[C@H]([C@H](O)CCC(C)(C)O)[C@H]1CC[C@@]2(O)C3=CC(=O)[C@@H]4C[C@@H](O)[C@@H](O)C[C@]4(C)[C@H]3CC[C@]12C`, the TD50 runs as follows: (mouse, strain Swiss albino, females, by gavage, site: any site (literature study), lesion: malignant tumor, dosed 95 weeks, study length 95 weeks) 0.0264 mg/kg/day; (mouse, strain Swiss albino, females, by gavage, site: mammary gland, lesion: adenocarcinoma, dosed 95 weeks, study length 95 weeks) 0.0264 mg/kg/day; (mouse, strain Swiss albino, males, by gavage, site: any site (literature study), lesion: malignant tumor, dosed 95 weeks, study length 95 weeks) 0.0558 mg/kg/day; (mouse, strain Swiss albino, males, by gavage, site: lung, lesion: adenocarcinoma, dosed 95 weeks, study length 95 weeks) 0.0558 mg/kg/day.

Regarding `CNc1ncnc2nc[nH]c12`, the carcinogen call by setting is: (mouse, strain Swiss CD-1, females, in drinking water, site: liver, lesion: hepatocellular tumor, dosed 26 weeks, study length 104 weeks) “negative (inactive)”; (mouse, strain Swiss CD-1, females, in drinking water, site: lung, lesion: one or several types, types not named, dosed 26 weeks, study length 104 weeks) “negative (inactive)”; (mouse, strain Swiss CD-1, males, in drinking water, site: liver, lesion: hepatocellular tumor, dosed 26 weeks, study length 106 weeks) “negative (inactive)”; (mouse, strain Swiss CD-1, males, in drinking water, site: lung, lesion: one or several types, types not named, dosed 26 weeks, study length 106 weeks) “negative (inactive)”.

As to `CCCCOCCOCCOCc1cc2c(cc1CCC)OCO2`, the carcinogen call runs as follows: (mouse, strain B6AKF1, females, oral dosing, site: liver, lesion: hepatoma, dosed 76 weeks, study length 76 weeks) “negative (inactive)”; under setting [1], “negative (inactive)”; (mouse, strain B6AKF1, males, oral dosing, site: any site (literature study), lesion: several types, types named in the paper, dosed 76 weeks, study length 76 weeks) “negative (inactive)”; (mouse, strain B6AKF1, males, oral dosing, site: liver, lesion: hepatoma, dosed 76 weeks, study length 76 weeks) “negative (inactive)”; (mouse, strain B6AKF1, males, oral dosing, site: lung, lesion: adenoma, dosed 76 weeks, study length 76 weeks) “negative (inactive)”; (mouse, strain B6C3F1, females, in feed, site: any site (literature study), lesion: several types, types named in the paper, dosed 112 weeks, study length 112 weeks) “negative (inactive)”. In addition, the carcinogen call (mouse, strain B6C3F1, females, oral dosing, site: any site (literature study), lesion: one or several types, types not named, dosed 76 weeks, study length 76 weeks) is “negative (inactive)”; the carcinogen call (mouse, strain B6C3F1, females, oral dosing, site: liver, lesion: hepatoma, dosed 76 weeks, study length 76 weeks) was “negative (inactive)”; the carcinogen call (mouse, strain B6C3F1, females, oral dosing, site: lung, lesion: several types, types named in the paper, dosed 76 weeks, study length 76 weeks) is “negative (inactive)”; the carcinogen call (mouse, strain B6C3F1, males, in feed, site: any site (literature study), lesion: several types, types named in the paper, dosed 112 weeks, study length 112 weeks) is “negative (inactive)”; the carcinogen call (mouse, strain B6C3F1, males, oral dosing, site: lung, lesion: several types, types named in the paper, dosed 76 weeks, study length 76 weeks) was “negative (inactive)”; the carcinogen call (rat, strain F344/DuCrj, females, in feed, site: any site (literature study), lesion: several types, types named in the paper, dosed 104 weeks, study length 110 weeks) is “negative (inactive)”. Also, the carcinogen call (rat, strain F344/DuCrj, females, in feed, site: liver, lesion: neoplastic nodule, dosed 104 weeks, study length 110 weeks) is “negative (inactive)”; the carcinogen call (rat, strain F344/DuCrj, males, in feed, site: any site (literature study), lesion: several types, types named in the paper, dosed 104 weeks, study length 110 weeks) was “negative (inactive)”; the carcinogen call (rat, strain Fischer 344, males, in feed, site: any site (literature study), lesion: several types, types named in the paper, dosed 107 weeks, study length 107 weeks) is “negative (inactive)”. The TD50 runs as follows: under setting [1], 265 mg/kg/day; (mouse, strain B6C3F1, females, in feed, site: liver, lesion: hepatocellular adenoma + hepatocellular carcinoma + neoplastic nodule, dosed 112 weeks, study length 112 weeks) 3260 mg/kg/day; (mouse, strain B6C3F1, females, oral dosing, site: any site (literature study), lesion: several types, types named in the paper, dosed 76 weeks, study length 76 weeks) 83.1 mg/kg/day; (mouse, strain B6C3F1, males, oral dosing, site: all sites, lesion: reticulum-cell sarcoma, dosed 76 weeks, study length 76 weeks) 34.8 mg/kg/day; (mouse, strain B6C3F1, males, oral dosing, site: liver, lesion: hepatoma, dosed 76 weeks, study length 76 weeks) 186 mg/kg/day (inactive) and 98.5 mg/kg/day; (mouse, strain Charles River CD1, females, in feed, site: liver, lesion: basophil adenoma, dosed 79 weeks, study length 79 weeks) 4540 mg/kg/day. The TD50 runs as follows: (mouse, strain Charles River CD1, females, in feed, site: liver, lesion: eosinophilic adenoma, dosed 79 weeks, study length 79 weeks) 1120 mg/kg/day; (mouse, strain Charles River CD1, females, in feed, site: liver, lesion: hepatocellular adenoma, dosed 52 weeks, study length 52 weeks) 2380 mg/kg/day; (mouse, strain Charles River CD1, females, in feed, site: liver, lesion: hepatocellular adenoma, dosed 79 weeks, study length 79 weeks) 825 mg/kg/day; (mouse, strain Charles River CD1, females, in feed, site: liver, lesion: hepatocellular carcinoma, dosed 52 weeks, study length 52 weeks) 756 mg/kg/day; (mouse, strain Charles River CD1, females, in feed, site: liver, lesion: several types, types named in the paper, dosed 52 weeks, study length 52 weeks) 516 mg/kg/day; (mouse, strain Charles River CD1, males, in feed, site: liver, lesion: basophil adenoma, dosed 79 weeks, study length 79 weeks) 844 mg/kg/day. Moreover, the TD50 runs as follows: (mouse, strain Charles River CD1, males, in feed, site: liver, lesion: eosinophilic adenoma, dosed 79 weeks, study length 79 weeks) 355 mg/kg/day; (mouse, strain Charles River CD1, males, in feed, site: liver, lesion: hepatocellular adenoma, dosed 52 weeks, study length 52 weeks) 1060 mg/kg/day; (mouse, strain Charles River CD1, males, in feed, site: liver, lesion: hepatocellular adenoma, dosed 79 weeks, study length 79 weeks) 160 mg/kg/day; (mouse, strain Charles River CD1, males, in feed, site: liver, lesion: hepatocellular carcinoma, dosed 52 weeks, study length 52 weeks) 410 mg/kg/day; (mouse, strain Charles River CD1, males, in feed, site: liver, lesion: hepatocellular carcinoma, dosed 79 weeks, study length 79 weeks) 3470 mg/kg/day; (mouse, strain Charles River CD1, males, in feed, site: liver, lesion: mixed cell adenoma, dosed 79 weeks, study length 79 weeks) 2630 mg/kg/day. For the same compound, the TD50 runs as follows: (mouse, strain Charles River CD1, males, in feed, site: liver, lesion: several types, types named in the paper, dosed 52 weeks, study length 52 weeks) 229 mg/kg/day; (rat, strain Charles River CD (Sprague-Dawley), females, in feed, site: liver, lesion: hepatocellular carcinoma, dosed 104 weeks, study length 104 weeks) 12800 mg/kg/day (inactive); (rat, strain Charles River CD (Sprague-Dawley), males, in feed, site: liver, lesion: hepatocellular adenoma, dosed 104 weeks, study length 104 weeks) 12800 mg/kg/day (inactive); (rat, strain Charles River CD (Sprague-Dawley), males, in feed, site: liver, lesion: hepatocellular carcinoma, dosed 104 weeks, study length 104 weeks) 78500 mg/kg/day (inactive); (rat, strain F344/DuCrj, females, in feed, site: liver, lesion: cholangioma, cystic, dosed 96 weeks, study length 96 weeks) 19100 mg/kg/day; (rat, strain F344/DuCrj, females, in feed, site: liver, lesion: hepatocellular adenoma, dosed 96 weeks, study length 96 weeks) 2460 mg/kg/day. The TD50 is 2220 mg/kg/day (rat, strain F344/DuCrj, females, in feed, site: liver, lesion: hepatocellular carcinoma, dosed 96 weeks, study length 96 weeks); 977 mg/kg/day (rat, strain F344/DuCrj, females, in feed, site: liver, lesion: hepatocellular tumor, dosed 96 weeks, study length 96 weeks); 30200 mg/kg/day (rat, strain F344/DuCrj, males, in feed, site: liver, lesion: cholangioma, cystic, dosed 95 weeks, study length 95 weeks); 1400 mg/kg/day (rat, strain F344/DuCrj, males, in feed, site: liver, lesion: hepatocellular adenoma, dosed 95 weeks, study length 95 weeks); 806 mg/kg/day (rat, strain F344/DuCrj, males, in feed, site: liver, lesion: hepatocellular carcinoma, dosed 95 weeks, study length 95 weeks); 20100 mg/kg/day (inactive) (rat, strain F344/DuCrj, males, in feed, site: liver, lesion: hepatocellular carcinoma, dosed 104 weeks, study length 110 weeks). Besides, the TD50 reads like this: (rat, strain F344/DuCrj, males, in feed, site: liver, lesion: hepatocellular tumor, dosed 95 weeks, study length 95 weeks) 468 mg/kg/day; (rat, strain F344/DuCrj, males, in feed, site: liver, lesion: neoplastic nodule, dosed 104 weeks, study length 110 weeks) 7690 mg/kg/day (inactive); (rat, strain Fischer 344, females, in feed, site: all sites, lesion: lymphoma, dosed 107 weeks, study length 107 weeks) 1180 mg/kg/day (inactive); (rat, strain Fischer 344, females, in feed, site: any site (literature study), lesion: several types, types named in the paper, dosed 107 weeks, study length 107 weeks) 7820 mg/kg/day; (rat, strain Wistar, both sexes, in feed, site: liver, lesion: hepatocellular carcinoma, dosed 95 weeks, study length 104 weeks) 26100 mg/kg/day (inactive); (rat, strain Wistar, both sexes, in feed, site: liver, lesion: hepatoma, dosed 95 weeks, study length 104 weeks) 22500 mg/kg/day (inactive).
